According to publication PMC6006850, “Assessment of new HDAC inhibitors for immunotherapy of malignant pleural mesothelioma” (Clinical Epigenetics, 2018):
Like-named read-outs stand apart in the source and are kept apart here.

Tests used:
[1] = cited from earlier work
CD8 T-cell clones = experiment: Cell viability (CellTiter-Glo) of CD8 T-cell clones treated with HDACi, with or without decitabine; type: cell-based, human; parameters: AUC (Area Under the Curve) T-CD8 clones - 5-aza: unit not given beside the values; conditions: for IC50: Homo sapiens, T-cell; for AUC (Area Under the Curve) T-CD8 clones + 5-aza 500nM / AUC (Area Under the Curve) T-CD8 clones - 5-aza: viability dose-response curve; for AUC (Area Under the Curve) T-CD8 clones + 5-aza 500nM: decitabine 500 nM pretreatment; for AUC (Area Under the Curve) T-CD8 clones - 5-aza: no decitabine
[2] = system: natural killer cells (NK) (CD56+, CD16+); experiment: Flow cytometry of natural killer cell proportion in treated lymphocytes; type: cell-based, human
Experimental: (§1) For flow cytometry experiments, lymphocytes were seeded at 4 × 10^5cells/well in a flat-bottomed 96-well plate in 180 μl RPMI 1640 8% HS. […]
(§2) The day of analysis, cells were stained in a conical-bottomed 96-well plate at 10^5 cells/well. The plate was centrifuged at 800×g for 1 min, and the pellets were washed using 200 μl/well of PBS containing BSA 0.1% (wash buffer). Antibodies (see Additional file 2: Table S2) were used at a dilution of 1/30 in the wash buffer, and then, the plate was incubated at 4 °C for 30 min. Later, two washings were performed using the wash buffer prior to flow cytometry analysis. All flow cytometry data were acquired with FACScalibur (BD biosciences) using the CellQuest software (BD Biosciences) and analyzed by FlowJo software.
(§3) The aim of our strategy is to induce an anti-tumor immune response to cure malignant pleural mesothelioma by using combinations of epigenetic drugs including HDACi. Therefore, it was necessary to study the effect of these HDACi on sub-populations of lymphocytes implicated in this immune response. […] Toxicity of the compounds was tested on natural killer cells (NK) (CD56+, CD16+), on regulatory T-cells (Treg) (CD4+, CD25+, CD127 low and Foxp3+), on CD4 and CD8 naïve T-cells (CD4+, CCR7+ and CD45RA+, and CD8+, CCR7+ and CD45RA+, respectively), and on CD4 and CD8 memory T cells (CD4+ and CD45RO+, and CD8+ and CD45RO+, respectively).

lymphocytes = experiment: Cell viability (CellTiter-Glo) of lymphocytes treated with HDACi, with or without decitabine; parameters: hematological toxicity: dose or concentration left out as unconfirmed; AUC (Area Under the Curve) Lymphocytes - 5-aza: unit not given beside the values; conditions: for AUC (Area Under the Curve) Lymphocytes + 5-aza 500nM / AUC (Area Under the Curve) Lymphocytes - 5-aza: viability dose-response curve; for AUC (Area Under the Curve) Lymphocytes + 5-aza 500nM: decitabine 500 nM pretreatment; for AUC (Area Under the Curve) Lymphocytes - 5-aza: no decitabine
PD-L1 (B7-H1) mRNA = experiment: PD-L1 mRNA expression in MPM cells by real time PCR; conditions: for PD-L1 mRNA: HDACi 48 h combined with decitabine 500 nM (72 h pretreatment); for PD-L1 expression: two additional MPM cell lines (Meso34 and Meso45), molecule alone
Experimental: (§4) All real-time PCR reactions were performed using the Mx3005P QPCR Systems (Stratagen Products, Agilent Technologies), and the amplifications were done using the SYBR Green PCR Master Mix SAB bioscience (Qiagen) mixed with Oligonucleotides QuantiTect Primer (Qiagen). The thermal cycling conditions were composed of 1 cycle at 95 °C for 10 min, 40 cycles at 95 °C for 30 s and 60 °C for 1 min, and 1 cycle at 95 °C for 1 min, 60 °C for 30 s, and 95 °C for 30 s. The experiments were carried out in duplicate for each data point. All the qPCR data were analyzed by MxPro software.

MDA5 mRNA = MDA5 mRNA expression in MPM cells by real time PCR; conditions: decitabine alone
Experimental: as §4

RIG-1 mRNA = RIG-1 mRNA expression in MPM cells by real time PCR; conditions: decitabine alone
Experimental: as §4

[3] = system: regulatory T-cells (Treg) (CD4+, CD25+, CD127 low and Foxp3+); experiment: Flow cytometry of regulatory T cell proportion in treated lymphocytes; type: cell-based, human; conditions: decitabine alone 500 nM, 72 h
Experimental: as §1, §2, §3

## CCCC(CCC)C(=O)O [VPA, valproic acid]
[1]; patients, clinical trials
  blood concentrations observed during treatments: approximately 1 mM
CD8 T-cell clones; read-out: IC50 T-CD8 clones + Decitabine 500 nM, decitabine 500 nM 72 h pretreatment, then 48 h HDACi
  IC50: 20 µM
CD8 T-cell clones; 48 h HDACi, no decitabine pretreatment, read-out: IC50 T-CD8 clones − Decitabine
  IC50: 3800 ± 60 µM
CD8 T-cell clones
  AUC (Area Under the Curve) T-CD8 clones + 5-aza 500nM: 60.52
  AUC (Area Under the Curve) T-CD8 clones - 5-aza: 216.8
[2]; in comparison to untreated lymphocytes, 48 h, VPA 5 mM, SAHA 1 μM, ODB 32 μM, NODB 8 μM, ODH 4 μM, NODH 50 nM
  decrease of the proportion of NK cells: more than 50%
lymphocytes; (blood concentration observed during treatments)
  hematological toxicity: weak hematological toxicity
lymphocytes
  AUC (Area Under the Curve) Lymphocytes + 5-aza 500nM: 208.5
  AUC (Area Under the Curve) Lymphocytes - 5-aza: 248.3
PD-L1 (B7-H1) mRNA; Meso96
  PD-L1 mRNA: significant increase
PD-L1 (B7-H1) mRNA
  PD-L1 expression: increased

## Nc1ncn([C@H]2C[C@H](O)[C@@H](CO)O2)c(=O)n1 [decitabine, 5-Aza-2′-deoxycytidine]
MDA5 mRNA; Meso34
  MDA5 mRNA expression: increased significantly
MDA5 mRNA; Meso45
  MDA5 mRNA expression: increased significantly
MDA5 mRNA; Meso96
  MDA5 mRNA expression: not
RIG-1 mRNA; Meso34
  RIG-1 mRNA expression: increased significantly
RIG-1 mRNA; Meso45
  RIG-1 mRNA expression: increased significantly
RIG-1 mRNA; Meso96
  RIG-1 mRNA expression: not
[2]; decitabine alone 500 nM, 72 h
  effect on NK proportion: reduced moderately
[3]
  effect on Treg proportion: reduced moderately
PD-L1 (B7-H1) mRNA; Meso96, decitabine alone 500 nM
  mRNA expression of PD-L1: did not affect
PD-L1 (B7-H1) mRNA
  PD-L1 expression: increased

## O=C(CCCCCCC(=O)Nc1ccccc1)NO [SAHA, Suberoylanilide hydroxamic acid]
[1]
  clinical doses measured in blood from patients: 1 to 4 µM
[1]; patients, clinical trials
  blood concentrations reach in clinic: approximately 1 μM
CD8 T-cell clones
  AUC (Area Under the Curve) T-CD8 clones + 5-aza 500nM: 35.07
  AUC (Area Under the Curve) T-CD8 clones - 5-aza: 112.2
lymphocytes; at clinical doses measured in blood from patients (approximately 1 to 4 μM)
  toxicity for lymphocytes and CD8 T-cells: toxic
lymphocytes; lymphocytes, highest dose of compound, in the presence or not of decitabine
  cells survived: approximately 40%
lymphocytes
  AUC (Area Under the Curve) Lymphocytes + 5-aza 500nM: 183.9
  AUC (Area Under the Curve) Lymphocytes - 5-aza: 200.5
PD-L1 (B7-H1) mRNA; Meso96
  PD-L1 mRNA: significant increase
PD-L1 (B7-H1) mRNA
  PD-L1 expression: increased
